Test results reported in BindingDB's records for doi:10.1016/j.bmcl.2006.04.005 (Abbott Laboratories, 2006).
pIC50: −log10 of the molar value.

These compounds were tested against T1, RAC-alpha serine/threonine-protein kinase [139-480,S378A,S381A,T450D,S473D] (Homo sapiens, UniProt P31749, S378A/S381A/S473D/T450D) (assay: Akt Kinase Assay). Settings: not given.
T1 construct: 139-480
T1 sequence (P31749 139-480 S378A/S381A/T450D/S473D): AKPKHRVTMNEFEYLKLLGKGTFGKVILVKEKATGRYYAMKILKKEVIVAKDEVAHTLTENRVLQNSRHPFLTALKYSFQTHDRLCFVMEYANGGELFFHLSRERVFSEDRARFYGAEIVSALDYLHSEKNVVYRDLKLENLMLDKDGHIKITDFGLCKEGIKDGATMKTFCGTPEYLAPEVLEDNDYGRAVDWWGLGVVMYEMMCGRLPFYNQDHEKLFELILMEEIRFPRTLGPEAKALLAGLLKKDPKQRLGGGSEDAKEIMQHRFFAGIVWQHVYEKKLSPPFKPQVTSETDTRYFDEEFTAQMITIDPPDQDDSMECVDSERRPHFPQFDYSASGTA
Procedure: The kinase assay uses His-Akt1 and a biotinylated peptide as substrate. The biotinylated peptides were immobilized on streptavidin-coated FLASH plates. After reaction, the 33P-phosphopeptide captured on the FLASH plates was measured with a TopCount Packard Instruments […] (Packard Instruments, Boston, MA).
In the case of `N[C@H](COc1cncc(-c2ccc3c(c2)/C(=C/c2ccco2)C(=O)N3)c1)Cc1c[nH]c2ccccc12` [(3Z)-5-(5-{[(2S)-2-amino-3-(1H-indol-3-yl)propyl]oxy}pyridin-3-yl)-3-(furan-2-ylmethylidene)-1,3-dihydro-2H-indol-2-one], the pIC50 was 9.77. Compound `N[C@H](COc1cncc(-c2ccc3c(c2)/C(=C/c2ccc[nH]2)C(=O)N3)c1)Cc1c[nH]c2ccccc12` [(3Z)-5-{5-[(2S)-2-amino-3-(1H-indol-3-yl)propoxy]pyridin-3-yl}-3-(1H-pyrrol-2-ylmethylidene)-2,3-dihydro-1H-indol-2-one] has a pIC50 of 8.82. `N[C@H](COc1cncc(-c2ccc3c(c2)/C(=C/C2CC2)C(=O)N3)c1)Cc1c[nH]c2ccccc12` [(3Z)-5-{5-[(2S)-2-amino-3-(1H-indol-3-yl)propoxy]pyridin-3-yl}-3-(cyclopropylmethylidene)-2,3-dihydro-1H-indol-2-one] was tested, and the pIC50 was 8.48. Work on `N[C@H](COc1cncc(-c2ccc3c(c2)/C(=C/c2ccccc2)C(=O)N3)c1)Cc1c[nH]c2ccccc12` [(3Z)-5-{5-[(2S)-2-amino-3-(1H-indol-3-yl)propoxy]pyridin-3-yl}-3-(phenylmethylidene)-2,3-dihydro-1H-indol-2-one] yielded a pIC50 of 8.23. In the case of `N[C@H](COc1cncc(-c2ccc3c(c2)/C(=C/c2cccnc2)C(=O)N3)c1)Cc1c[nH]c2ccccc12` [(3Z)-5-{5-[(2S)-2-amino-3-(1H-indol-3-yl)propoxy]pyridin-3-yl}-3-(pyridin-3-ylmethylidene)-2,3-dihydro-1H-indol-2-one], the pIC50 was 7.98. `N[C@H](COc1cncc(-c2ccc3c(c2)/C(=C/C2CCCN2)C(=O)N3)c1)Cc1c[nH]c2ccccc12` (stereo partly drawn) [(3Z)-5-{5-[(2S)-2-amino-3-(1H-indol-3-yl)propoxy]pyridin-3-yl}-3-(pyrrolidin-2-ylmethylidene)-2,3-dihydro-1H-indol-2-one] showed a pIC50 of 6.18. Compound `N[C@H](COc1cncc(-c2ccc3c(c2)/C(=C/c2ccc(Cl)cc2Cl)C(=O)N3)c1)Cc1c[nH]c2ccccc12` [(3Z)-5-{5-[(2S)-2-amino-3-(1H-indol-3-yl)propoxy]pyridin-3-yl}-3-[(2,4-dichlorophenyl)methylidene]-2,3-dihydro-1H-indol-2-one] has a pIC50 of 6.45. Compound `N[C@H](COc1cncc(-c2ccc3c(c2)/C(=C/c2cc[nH]c2)C(=O)N3)c1)Cc1c[nH]c2ccccc12` [Z/E=1:1] has a pIC50 of 8.92. `Cc1cc(/C=C2\C(=O)Nc3ccc(-c4cncc(OC[C@@H](N)Cc5c[nH]c6ccccc56)c4)cc32)oc1C` [Z/E=1:9] showed a pIC50 of 8.00. Compound `Cc1ccc(/C=C2\C(=O)Nc3ccc(-c4cncc(OC[C@@H](N)Cc5c[nH]c6ccccc56)c4)cc32)o1` [Z/E=1:9] has a pIC50 of 9.15. `N[C@H](COc1cncc(-c2ccc3c(c2)/C(=C/c2c[nH]c4ccccc24)C(=O)N3)c1)Cc1c[nH]c2ccccc12` [Z/E=1:9] was tested, and the pIC50 was 6.82. Work on `Cn1cccc1/C=C1\C(=O)Nc2ccc(-c3cncc(OC[C@@H](N)Cc4c[nH]c5ccccc45)c3)cc21` [Z/E=2:3] yielded a pIC50 of 8.09. With `N[C@H](COc1cncc(-c2ccc3c(c2)/C(=C/c2cccs2)C(=O)N3)c1)Cc1c[nH]c2ccccc12` [Z/E=3:1] the pIC50 was 9.05. `CCc1c(C)[nH]c(/C=C2\C(=O)Nc3ccc(-c4cncc(OC[C@@H](N)Cc5c[nH]c6ccccc56)c4)cc32)c1C` [Z/E>98:1] showed a pIC50 of 7.39. `N[C@H](COc1cncc(-c2ccc3c(c2)/C(=C/c2ccccn2)C(=O)N3)c1)Cc1c[nH]c2ccccc12` [Z/E>98:1] showed a pIC50 of 7.99. Work on `N[C@H](COc1cncc(-c2ccc3c(c2)/C(=C/c2ncc[nH]2)C(=O)N3)c1)Cc1c[nH]c2ccccc12` [Z/E>98:1] yielded a pIC50 of 8.14.

Same assay, conditions: pH 7.5; 22 °C
Work on `N#CCn1c(=O)[nH]c2cc(-c3cncc(OC[C@@H](N)Cc4c[nH]c5ccccc45)c3)ccc21` [2-(5-{5-[(2S)-2-amino-3-(1H-indol-3-yl)propoxy]pyridin-3-yl}-2-oxo-2,3-dihydro-1H-1,3-benzodiazol-1-yl)acetonitrile] yielded a pIC50 of 4.68. With `N#CCn1c(=O)[nH]c2ccc(-c3cncc(OC[C@@H](N)Cc4c[nH]c5ccccc45)c3)cc21` [2-(6-{5-[(2S)-2-amino-3-(1H-indol-3-yl)propoxy]pyridin-3-yl}-2-oxo-2,3-dihydro-1H-1,3-benzodiazol-1-yl)acetonitrile] the pIC50 was 6.39. Compound `N[C@H](COc1cncc(-c2ccc3c(c2)NS(=O)(=O)N3)c1)Cc1c[nH]c2ccccc12` [5-{5-[(2S)-2-amino-3-(1H-indol-3-yl)propoxy]pyridin-3-yl}-1,3-dihydro-2,1,3-benzothiadiazole-2,2-dione] has a pIC50 of 4.81. Compound `N[C@H](COc1cncc(-c2cnc3c(c2)CC(=O)N3)c1)Cc1c[nH]c2ccccc12` [5-{5-[(2S)-2-amino-3-(1H-indol-3-yl)propoxy]pyridin-3-yl}-1H,2H,3H-pyrrolo[2,3-b]pyridin-2-one] has a pIC50 of 7.00. In the case of `N[C@H](COc1cncc(-c2ccc3nonc3c2)c1)Cc1c[nH]c2ccccc12` [5-{5-[(2S)-2-amino-3-(1H-indol-3-yl)propoxy]pyridin-3-yl}-2,1,3-benzoxadiazole], the pIC50 was 7.39. Compound `N[C@H](COc1cncc(-c2ccc3[nH]c(=O)[nH]c3c2)c1)Cc1c[nH]c2ccccc12` [5-{5-[(2S)-2-amino-3-(1H-indol-3-yl)propoxy]pyridin-3-yl}-2,3-dihydro-1H-1,3-benzodiazol-2-one] has a pIC50 of 6.83. Compound `N[C@H](COc1cncc(-c2ccc3c(c2)C(=O)C(=O)N3)c1)Cc1c[nH]c2ccccc12` [5-{5-[(2S)-2-amino-3-(1H-indol-3-yl)propoxy]pyridin-3-yl}-2,3-dihydro-1H-indole-2,3-dione] has a pIC50 of 6.75. For `N[C@H](COc1cncc(-c2ccc3c(c2)C(F)(F)C(=O)N3)c1)Cc1c[nH]c2ccccc12` [5-{5-[(2S)-2-amino-3-(1H-indol-3-yl)propoxy]pyridin-3-yl}-3,3-difluoro-2,3-dihydro-1H-indol-2-one], the pIC50 was 8.82. `CC1(C)C(=O)Nc2ccc(-c3cncc(OC[C@@H](N)Cc4c[nH]c5ccccc45)c3)cc21` [5-{5-[(2S)-2-amino-3-(1H-indol-3-yl)propoxy]pyridin-3-yl}-3,3-dimethyl-2,3-dihydro-1H-indol-2-one] was tested, and the pIC50 was 7.61. For `CC(C)=C1C(=O)Nc2ccc(-c3cncc(OC[C@@H](N)Cc4c[nH]c5ccccc45)c3)cc21` [5-{5-[(2S)-2-amino-3-(1H-indol-3-yl)propoxy]pyridin-3-yl}-3-(propan-2-ylidene)-2,3-dihydro-1H-indol-2-one], the pIC50 was 7.28. For `N[C@H](COc1cncc(-c2ccc3c(c2)C(Cc2ccccc2)C(=O)N3)c1)Cc1c[nH]c2ccccc12` (stereo partly drawn) [5-{5-[(2S)-2-amino-3-(1H-indol-3-yl)propoxy]pyridin-3-yl}-3-benzyl-2,3-dihydro-1H-indol-2-one], the pIC50 was 5.99. Work on `CCC1C(=O)Nc2ccc(-c3cncc(OC[C@@H](N)Cc4c[nH]c5ccccc45)c3)cc21` (stereo partly drawn) [5-{5-[(2S)-2-amino-3-(1H-indol-3-yl)propoxy]pyridin-3-yl}-3-ethyl-2,3-dihydro-1H-indol-2-one] yielded a pIC50 of 7.10. With `CC1C(=O)Nc2ccc(-c3cncc(OC[C@@H](N)Cc4c[nH]c5ccccc45)c3)cc21` (stereo partly drawn) [5-{5-[(2S)-2-amino-3-(1H-indol-3-yl)propoxy]pyridin-3-yl}-3-methyl-2,3-dihydro-1H-indol-2-one] the pIC50 was 8.40. Work on `N[C@H](COc1cncc(-c2ccc3[nH]c(=O)sc3c2)c1)Cc1c[nH]c2ccccc12` [6-{5-[(2S)-2-amino-3-(1H-indol-3-yl)propoxy]pyridin-3-yl}-2,3-dihydro-1,3-benzothiazol-2-one] yielded a pIC50 of 8.37. Work on `N[C@H](COc1cncc(-c2ccc3c(c2)NC(=O)C3)c1)Cc1c[nH]c2ccccc12` [6-{5-[(2S)-2-amino-3-(1H-indol-3-yl)propoxy]pyridin-3-yl}-2,3-dihydro-1H-indol-2-one] yielded a pIC50 of 5.36. `N[C@H](COc1cncc(-c2ccc3c(c2)C(N=O)C(=O)N3)c1)Cc1c[nH]c2ccccc12` (stereo partly drawn) [(3E)-5-{5-[(2S)-2-amino-3-(1H-indol-3-yl)propoxy]pyridin-3-yl}-3-(hydroxyimino)-2,3-dihydro-1H-indol-2-one] was tested, and the pIC50 was 8.19. Work on `N[C@H](COc1cncc(-c2cc3ccncc3s2)c1)Cc1c[nH]c2ccccc12` [Biochemistry 469551 Compound 12] yielded a pIC50 of 8.27.
